Reference: ChEMBL document CHEMBL1201862, “PubChem BioAssay data set” (2004)
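Test compounds were applied to cells in 96-well plates for 48 hours at 5 doses. At the GI50, growth is halved.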 Active and inactive are the calls of the source. No stated cut-off is given here; in the data, active = GI50 up to about 1.1 µM and inactive = higher.

Key:
Experiment in all cases: NCI-60 cell line screen, 48 h
ACHN = test system: ACHN
MCF7 = test system: MCF7
A549 = test system: A549
MDA-N = test system: MDA-N
NCI/ADR-RES = test system: NCI/ADR-RES
MOLT-4 = test system: MOLT-4
U-251 = test system: U-251
UACC-62 = test system: UACC-62
SK-OV-3 = test system: SK-OV-3
SNB-19 = test system: SNB-19
HOP-92 = test system: HOP-92
SK-MEL-2 = test system: SK-MEL-2
SF-539 = test system: SF-539
OVCAR-4 = test system: OVCAR-4
M14 = test system: M14
LOX IMVI = test system: LOX IMVI
SK-MEL-5 = test system: SK-MEL-5
TK-10 = test system: TK-10
UACC-257 = test system: UACC-257
HCC 2998 = test system: HCC 2998

Row | Compound | GI50 (ACHN) | GI50 (MCF7) | GI50 (A549) | GI50 (MDA-N) | GI50 (NCI/ADR-RES) | GI50 (MOLT-4) | GI50 (U-251) | GI50 (UACC-62) | GI50 (SK-OV-3) | GI50 (SNB-19) | GI50 (HOP-92) | GI50 (SK-MEL-2) | GI50 (SF-539) | GI50 (OVCAR-4) | GI50 (M14) | GI50 (LOX IMVI) | GI50 (SK-MEL-5) | GI50 (TK-10) | GI50 (UACC-257) | GI50 (HCC 2998)
1 | Cc1nc2ccc(NCCN(C)C)c3c(=O)c4ccccc4n1c23 | 1.52 µM (inactive) | 3.3 µM (inactive) | 1.16 µM (inactive) | 1.66 µM (inactive) | 1.06 µM (active) | 0.348 µM (active) | 2.22 µM (inactive) | 5.02 µM (inactive) | 3.96 µM (inactive) | 4.19 µM (inactive) | 2.25 µM (inactive) | 5.47 µM (inactive) | 2.74 µM (inactive) | 1.83 µM (inactive) | 4.03 µM (inactive) | 0.9 µM (active) | 2.21 µM (inactive) | 4.08 µM (inactive) | 4.65 µM (inactive) | 2.96 µM (inactive)
2 | C=C(NC(=O)C(=C)NC(=O)c1csc(C2=NC3c4csc(n4)C4NC(=O)c5csc(n5)C(C(C)(O)C(C)O)NC(=O)C5CSC(=N5)/C(=C/C)NC(=O)C(C(C)O)NC(=O)c5csc(n5)C3(CC2)NC(=O)C(C)NC(=O)C(=C)NC(=O)C(=C)NC(=O)C(C(C)C)NC2C=Cc3c(C(C)O)cc(nc3C2O)C(=O)OC4C)n1)C(N)=O (stereo not given) | 2.59 µM (inactive) | 1.33 µM (inactive) | 5.42 µM (inactive) | 1.56 µM (inactive) | > 42.2 µM (inactive) | 0.364 µM (active) | 0.877 µM (active) | 0.54 µM (active) | 19.6 µM (inactive) | 33 µM (inactive) | 4.67 µM (inactive) | 2.22 µM (inactive) | 0.34 µM (active) | > 52.4 µM (inactive) | 2.62 µM (inactive) | 0.357 µM (active) | 1.29 µM (inactive) | 4.18 µM (inactive) | 2.91 µM (inactive) | 16.1 µM (inactive)
3 | CNC(=O)OCc1nc(SC)n(C)c1COC(=O)NC | 64.1 µM (inactive) | 132 µM (inactive) | 242 µM (inactive) | 161 µM (inactive) | 204 µM (inactive) | 26.4 µM (inactive) | 166 µM (inactive) | 60.1 µM (inactive) | 63 µM (inactive) | 233 µM (inactive) | 111 µM (inactive) | 119 µM (inactive) | 133 µM (inactive) | 129 µM (inactive) | 164 µM (inactive) | 133 µM (inactive) | 153 µM (inactive) | 177 µM (inactive) | 103 µM (inactive) | 122 µM (inactive)
4 | c1ccc(-c2nnc(-c3ccccn3)c3c2C[C@@H]2C[C@@H]4Cc5c(-c6ccccn6)nnc(-c6ccccn6)c5[C@@H]4[C@H]32)nc1 | 24.9 µM (inactive) | 66.1 µM (inactive) | 29 µM (inactive) | 46.6 µM (inactive) | 32.7 µM (inactive) | 33.2 µM (inactive) | 22.2 µM (inactive) | 41.7 µM (inactive) | > 100 µM (inactive) | 80.7 µM (inactive) | 60.4 µM (inactive) | 51.1 µM (inactive) | 85.7 µM (inactive) | 38.5 µM (inactive) | 20 µM (inactive) | 55.5 µM (inactive) | 27.8 µM (inactive) | > 100 µM (inactive) | 66.7 µM (inactive) | 39.9 µM (inactive)
5 | Cn1c(=O)sc2cc(C(=S)N3CCOCC3)ccc21 | > 100 µM (inactive) | > 100 µM (inactive) | > 100 µM (inactive) | > 100 µM (inactive) | > 73.1 µM (inactive) | 39.9 µM (inactive) | > 59.7 µM (inactive) | > 100 µM (inactive) | > 100 µM (inactive) | > 100 µM (inactive) | 9.89 µM (inactive) | > 100 µM (inactive) | > 100 µM (inactive) | > 100 µM (inactive) | > 100 µM (inactive) | > 85.7 µM (inactive) | > 100 µM (inactive) | > 100 µM (inactive) | > 100 µM (inactive) | > 100 µM (inactive)
6 | c1ccc2c(c1)CCCN1CCc3ccccc3C21 (stereo not given) | 68.9 µM (inactive) | > 100 µM (inactive) | 60.1 µM (inactive) | 27 µM (inactive) | 78.3 µM (inactive) | 50.9 µM (inactive) | 51.5 µM (inactive) | 35.2 µM (inactive) | 66.5 µM (inactive) | 92.3 µM (inactive) | 24.9 µM (inactive) | 96.6 µM (inactive) | 24 µM (inactive) | 9.46 µM (inactive) | 26.9 µM (inactive) | 29.6 µM (inactive) | 23.3 µM (inactive) | 61.4 µM (inactive) | 77.1 µM (inactive) | 44.3 µM (inactive)
7 | CC1=C(C(=O)NNC(=O)C(N)=O)CC(C(=O)NNC(=O)C(N)=O)=C(C)N1 | > 100 µM (inactive) | > 100 µM (inactive) | > 100 µM (inactive) | > 100 µM (inactive) | > 100 µM (inactive) | > 100 µM (inactive) | > 100 µM (inactive) | > 100 µM (inactive) | > 100 µM (inactive) | > 100 µM (inactive) | > 100 µM (inactive) | > 100 µM (inactive) | > 100 µM (inactive) | > 100 µM (inactive) | > 100 µM (inactive) | > 100 µM (inactive) | > 100 µM (inactive) | > 100 µM (inactive) | > 100 µM (inactive) | > 100 µM (inactive)
8 | N#CC1(C#N)C2=C(CCCC2)NC(c2ccc(Br)cc2)C1(C#N)C#N (stereo not given) | 1.77 µM (inactive) | 5.32 µM (inactive) | 17.2 µM (inactive) | 4.26 µM (inactive) | 17.2 µM (inactive) | 0.384 µM (active) | 13.5 µM (inactive) | 16.5 µM (inactive) | 22.7 µM (inactive) | 16.5 µM (inactive) | 4.76 µM (inactive) | 15.6 µM (inactive) | 14.2 µM (inactive) | 7.76 µM (inactive) | 2.63 µM (inactive) | 2.11 µM (inactive) | 15.5 µM (inactive) | 4.44 µM (inactive) | 4.22 µM (inactive) | 20.5 µM (inactive)
9 | COc1ccc(/C=N/NC(=O)c2ccc(O)c(CN(C)C)c2)cc1 | > 100 µM (inactive) | > 100 µM (inactive) | > 100 µM (inactive) | > 100 µM (inactive) | > 100 µM (inactive) | > 100 µM (inactive) | > 100 µM (inactive) | > 100 µM (inactive) | > 100 µM (inactive) | > 100 µM (inactive) | 57 µM (inactive) | > 100 µM (inactive) | > 100 µM (inactive) | > 100 µM (inactive) | > 100 µM (inactive) | > 100 µM (inactive) | > 100 µM (inactive) | > 100 µM (inactive) | > 100 µM (inactive) | > 100 µM (inactive)
10 | CC(=O)OCCCC(NC(=O)OC(C)(C)C)C(=O)NC(CCCOC(C)=O)C(=O)NC(Cc1ccc([N+](=O)[O-])cc1)C(=O)NCC(=O)OCc1ccccc1 (stereo not given) | 17.4 µM (inactive) | 17.9 µM (inactive) | 20.3 µM (inactive) | 15.3 µM (inactive) | 19.2 µM (inactive) | 37.6 µM (inactive) | 18.4 µM (inactive) | 15.2 µM (inactive) | 26.1 µM (inactive) | 17.8 µM (inactive) | 18.4 µM (inactive) | 15.4 µM (inactive) | 15.3 µM (inactive) | 12.3 µM (inactive) | 12.9 µM (inactive) | 13.1 µM (inactive) | 16.4 µM (inactive) | 18.5 µM (inactive) | 15.3 µM (inactive) | 18.9 µM (inactive)
11 | CCC1(c2ccc(N)cc2)CCC(=O)NC1=O (stereo not given) [AMINOGLUTETHIMIDE] | 2490 µM (inactive) | 3010 µM (inactive) | 2880 µM (inactive) | 3250 µM (inactive) | 1680 µM (inactive) | 1440 µM (inactive) | 2050 µM (inactive) | 1820 µM (inactive) | 1190 µM (inactive) | 3350 µM (inactive) | 1030 µM (inactive) | 3510 µM (inactive) | 3240 µM (inactive) | 1970 µM (inactive) | 2290 µM (inactive) | 2770 µM (inactive) | 2090 µM (inactive) | 2170 µM (inactive) | 2650 µM (inactive) | 3680 µM (inactive)
